Here are results for one substance from paper PMC4124033 (Journal of molecular neuroscience : MN, 2010).

Test [1] has as its target T1, fatty acid amide hydrolase (FAAH) (Rattus norvegicus, UniProt P97612).
T1 sequence (P97612 1-579): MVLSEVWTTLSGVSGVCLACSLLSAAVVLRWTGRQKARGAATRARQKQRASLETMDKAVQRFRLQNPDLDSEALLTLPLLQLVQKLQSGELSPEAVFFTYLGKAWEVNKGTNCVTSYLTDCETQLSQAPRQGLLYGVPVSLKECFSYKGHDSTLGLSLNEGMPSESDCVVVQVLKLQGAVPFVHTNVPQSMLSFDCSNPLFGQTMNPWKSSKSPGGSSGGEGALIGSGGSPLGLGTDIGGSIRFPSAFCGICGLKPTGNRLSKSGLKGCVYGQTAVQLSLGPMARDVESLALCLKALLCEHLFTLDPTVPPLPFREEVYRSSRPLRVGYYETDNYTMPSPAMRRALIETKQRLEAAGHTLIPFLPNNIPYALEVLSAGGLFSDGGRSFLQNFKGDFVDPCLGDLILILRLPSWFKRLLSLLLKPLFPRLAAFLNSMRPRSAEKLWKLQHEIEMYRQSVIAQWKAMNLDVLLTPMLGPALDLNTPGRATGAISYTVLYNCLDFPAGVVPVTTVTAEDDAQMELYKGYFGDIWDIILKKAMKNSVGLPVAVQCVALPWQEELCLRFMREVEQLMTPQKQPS
Type of test: biochemical.

In test [2] the target is T2, monoacylglycerol lipase (MAGL) (Homo sapiens, UniProt Q99685).
T2 sequence (Q99685 1-303): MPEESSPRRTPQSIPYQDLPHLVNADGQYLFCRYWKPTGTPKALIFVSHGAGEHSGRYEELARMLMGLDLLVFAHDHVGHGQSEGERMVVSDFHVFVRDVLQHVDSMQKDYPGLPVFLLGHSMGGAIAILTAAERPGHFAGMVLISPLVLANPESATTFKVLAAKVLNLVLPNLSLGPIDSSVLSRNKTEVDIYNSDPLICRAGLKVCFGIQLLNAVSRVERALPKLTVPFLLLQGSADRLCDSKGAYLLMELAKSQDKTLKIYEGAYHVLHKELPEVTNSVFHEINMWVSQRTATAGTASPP
Type of test: biochemical.

AM5206: the IC50 is 0.042 ± 0.006 µM in test [1] and 15.1 µM in test [2].

For orientation: IC50 means the midpoint of a concentration-inhibition curve. Lower therefore signals higher potency.
